# US20110245316A1, “PREVENTION OR DELAY OF ONSET OF ORAL MUCOSITIS” (SCICLONE PHARMACEUTICALS, INC., priority 2010, published 2011)
# System: oral mucositis in patients receiving chemoradiation for head and neck cancer
# Experiment: Phase 2 randomized, double-blind, placebo-controlled trial: onset of oral mucositis (WHO OM Scale) in patients receiving CT/RT
# Type: in vivo, human
# Excerpt: OM is a painful, debilitating, and costly toxicity of different chemoradiotherapy (CT/RT) regimens used to treat head and neck cancer. This trial is a phase 2, randomized, double-blind, dose-ranging, placebo-controlled three-arm study in patients receiving CT/RT for the treatment of head and neck cancer, to assess the safety and tolerability of γ-D-glutamyl-L-tryptophan (SCV-07) as well as its efficacy in delaying the onset of severe OM as assessed by the WHO Oral Mucositis Scale.
# The WHO OM Scale is the standard, validated instrument used in clinical trials to measure OM: Grade 0=none; Grade 1=erythema and soreness, no ulcers; Grade 2=ulcers, able to eat a solid diet; Grade 3=ulcers; requires a liquid diet; Grade 4=ulcers, not able to tolerate a solid or liquid diet, requires IV or tube feeding.
# 59 eligible patients with recently diagnosed, treatment naïve, pathologically-confirmed, non-metastatic squamous cell carcinoma of the oral cavity, oropharynx, hypopharynx or larynx were enrolled and treated with a concomitant regimen of CT/RT consisting of a continuous course of external beam irradiation (IMRT eligible) with a minimum cumulative dose of 50 Gray (Gy) and cisplatin monotherapy administered using standard weekly or tri-weekly dosing regimens (80-100 mg/m^2 administered on Days 0, 21 and 42) or weekly (30-40 mg/m^2). At least two ‘at risk’ intraoral sites were included in the radiation fields and received a cumulative RT dose of at least 50 Gy. Subjects were equally randomized to receive either placebo or one of two doses of γ-D-glutamyl-L-tryptophan (0.02 or 0.1 mg/kg) on each radiation day for up to 7 weeks.
# Tables 2-7 summarize the statistics for the Full Analysis Set “FAS” (57 subjects), and the completer population (52 subjects), with respect to delay of onset of severe oral mucositis. Also see FIGS. 1 and 2.
# SCV-07 efficacy, dosing and scheduling parameters were assessed in hamster models of acute, fractionated and concomitant chemoradiation (CRT). […] A multicenter, prospective, blinded, randomized trial evaluated SCV-07's ability to alter OM in CRT-treated HNC patients (n=57). Cytokine and gene microarray analyses were performed for samples obtained before and on the last radiation day.
# [1] = 0.02 mg/kg vs placebo, Completer Population
# [2] = 0.02 mg/kg, Completer Population
# [3] = 0.02 mg/kg, Completer Population, at 30-<35 Gy
# [4] = 0.02 mg/kg, Completer Population, at 35-<40 Gy
# [5] = 0.02 mg/kg, Completer Population, at 40-<45 Gy
# [6] = 0.02 mg/kg, Completer Population, at 45-<50 Gy
# [7] = 0.02 mg/kg, Completer Population, at 50-<55 Gy
# [8] = 0.02 mg/kg, Completer Population, at 55-<60 Gy
# [9] = 0.02 mg/kg, Completer Population, at 65-<70 Gy
# [10] = 0.02 mg/kg, Completer Population, at ≧70 Gy
# [11] = 0.10 mg/kg vs placebo, Completer Population
# [12] = 0.10 mg/kg, Completer Population
smiles,measurement,setting,value
"N[C@H](CCC(=O)N[C@@H](Cc1c[nH]c2ccccc12)C(=O)O)C(=O)O [SCV-07, γ-D-glutamyl-L-tryptophan]","Cox Regression Analysis of Time to Initial Occurrence of Sever OM, Hazard Ratio (95% CI)",[1],"1.884 (0.840, 4.225)"
same,"Cox Regression Analysis of Time to Initial Occurrence of Ulcerative OM, Hazard Ratio (95% CI)",[1],"0.737 (0.377, 1.444)"
same,"Cox Regression Analysis of Time to Initial Occurrence of Severe OM, Hazard Ratio (95% CI)","0.02 mg/kg vs placebo, FAS population","1.989 (0.908, 4.357)"
same,"Cumulative Dose of RT (Gy) at Initial Onset of Severe OM, Max",[2],70 Gy
same,"Cumulative Dose of RT (Gy) at Initial Onset of Severe OM, Mean (SD)",[2],43 (18.7) Gy
same,"Cumulative Dose of RT (Gy) at Initial Onset of Severe OM, Median",[2],34 Gy
same,"Cumulative Dose of RT (Gy) at Initial Onset of Severe OM, Min",[2],18 Gy
same,"Cumulative Dose of RT (Gy) at Initial Onset of Ulcerative OM, Max",[2],62 Gy
same,"Cumulative Dose of RT (Gy) at Initial Onset of Ulcerative OM, Mean (SD)",[2],24 (12.9) Gy
same,"Cumulative Dose of RT (Gy) at Initial Onset of Ulcerative OM, Median",[2],22 Gy
same,"Cumulative Dose of RT (Gy) at Initial Onset of Ulcerative OM, Min",[2],6 Gy
same,"Cumulative Dose of Radiation (Gy) Prior to Initial Occurrence of Severe OM (Delay to Onset of Severe OM), K-M Estimate, Mean (SE)",[2],42 (4.2) Gy
same,"Cumulative Dose of Radiation (Gy) Prior to Initial Occurrence of Severe OM, K-M Estimate, 25%-75%",[2],28-62 Gy
same,"Cumulative Dose of Radiation (Gy) Prior to Initial Occurrence of Severe OM, K-M Estimate, Median (95% CI)",[2],"34 (28, 62) Gy"
same,"Cumulative Dose of Radiation (Gy) Prior to Initial Occurrence of Ulcerative OM (Delay to Onset of Ulcerative OM), K-M Estimate, Mean (SE)",[2],24 (3.1) Gy
same,"Cumulative Dose of Radiation (Gy) Prior to Initial Occurrence of Ulcerative OM, K-M Estimate, 25%-75%",[2],18-30 Gy
same,"Cumulative Dose of Radiation (Gy) Prior to Initial Occurrence of Ulcerative OM, K-M Estimate, Median (95% CI)",[2],"22 (18, 30) Gy"
same,"Time (Days) to Initial Occurrence of Sever OM, K-M Estimate, 25%-7%",[2],18 to 42 days
same,"Time (Days) to Initial Occurrence of Sever OM, K-M Estimate, Mean (SE)",[2],28 (3.0) Days
same,"Time (Days) to Initial Occurrence of Sever OM, K-M Estimate, Median (95% CI)",[2],"25 (18, 42) Days"
same,"Time (Days) to Initial Occurrence of Ulcerative OM, K-M Estimate, 25%-7%",[2],10 to 20 days
same,"Time (Days) to Initial Occurrence of Ulcerative OM, K-M Estimate, Mean (SE)",[2],16 (2.2) Days
same,"Time (Days) to Initial Occurrence of Ulcerative OM, K-M Estimate, Median (95% CI)",[2],"15 (10, 20) Days"
same,Cum. Percent of Subjects with Ulcerative OM (WHO > 1),"0.02 mg/kg, Completer Population, at 5-<10 Gy","6% (1%, 35%)"
same,Cum. Percent of Subjects with Ulcerative OM (WHO > 1),"0.02 mg/kg, Completer Population, at 10-<15 Gy","18% (6%, 45%)"
same,Cum. Percent of Subjects with Ulcerative OM (WHO > 1),"0.02 mg/kg, Completer Population, at 15-<20 Gy","41% (22%, 67%)"
same,Cum. Percent of Subjects with Ulcerative OM (WHO > 1),"0.02 mg/kg, Completer Population, at 20-<25 Gy","59% (37%, 81%)"
same,Cum. Percent of Subjects with Ulcerative OM (WHO > 1),"0.02 mg/kg, Completer Population, at 25-<30 Gy","76% (55%, 93%)"
same,Cum. Percent of Subjects with Severe OM (WHO > 2),[3],"53% (32%, 77%)"
same,Cum. Percent of Subjects with Ulcerative OM (WHO > 1),[3],"88% (69%, 98%)"
same,Cum. Percent of Subjects with Severe OM (WHO > 2),[4],"53% (32%, 77%)"
same,Cum. Percent of Subjects with Ulcerative OM (WHO > 1),[4],"94% (76%, 100%)"
same,Cum. Percent of Subjects with Severe OM (WHO > 2),[5],"59% (37%, 81%)"
same,Cum. Percent of Subjects with Ulcerative OM (WHO > 1),[5],"94% (76%, 100%)"
same,Cum. Percent of Subjects with Severe OM (WHO > 2),[6],"59% (37%, 81%)"
same,Cum. Percent of Subjects with Ulcerative OM (WHO > 1),[6],"94% (76%, 100%)"
same,Cum. Percent of Subjects with Severe OM (WHO > 2),[7],"65% (43%, 86%)"
same,Cum. Percent of Subjects with Ulcerative OM (WHO > 1),[7],"94% (76%, 100%)"
same,Cum. Percent of Subjects with Severe OM (WHO > 2),[8],"71% (49%, 89%)"
same,Cum. Percent of Subjects with Ulcerative OM (WHO > 1),[8],"94% (76%, 100%)"
same,Cum. Percent of Subjects with Ulcerative OM (WHO > 1),"0.02 mg/kg, Completer Population, at 60-<65 Gy","100% (76%, 100%)"
same,Cum. Percent of Subjects with Severe OM (WHO > 2),"0.02 mg/kg, Completer Population, at 60->65 Gy","78% (56%, 94%)"
same,Cum. Percent of Subjects with Severe OM (WHO > 2),[9],"78% (56%, 94%)"
same,Cum. Percent of Subjects with Ulcerative OM (WHO > 1),[9],"100% (76%, 100%)"
same,Cum. Percent of Subjects with Ulcerative OM (WHO > 1),"0.02 mg/kg, Completer Population, at <5 Gy","0% (0%, 0%)"
same,Cum. Percent of Subjects with Severe OM (WHO > 2),"0.02 mg/kg, Completer Population, at <30 Gy","35% (18%, 62%)"
same,Cum. Percent of Subjects with Severe OM (WHO > 2),[10],"78% (56%, 94%)"
same,Cum. Percent of Subjects with Ulcerative OM (WHO > 1),[10],"100% (76%, 100%)"
same,"Cumulative Dose of RT (Gy) at Initial Onset of Severe OM, Max","0.02 mg/kg, FAS population",70 Gy
same,"Cumulative Dose of RT (Gy) at Initial Onset of Severe OM, Mean (SD)","0.02 mg/kg, FAS population",41 (18.0) Gy
same,"Cumulative Dose of RT (Gy) at Initial Onset of Severe OM, Median","0.02 mg/kg, FAS population",33 Gy
same,"Cumulative Dose of RT (Gy) at Initial Onset of Severe OM, Min","0.02 mg/kg, FAS population",18 Gy
same,"Cumulative Dose of Radiation (Gy) Prior to Initial Occurrence of Severe OM (Delay to Onset of Severe OM), K-M Estimate, Mean (SE)","0.02 mg/kg, FAS population",41 (3.8) Gy
same,"Cumulative Dose of Radiation (Gy) Prior to Initial Occurrence of Severe OM, K-M Estimate, 25%-75%","0.02 mg/kg, FAS population",28-62 Gy
same,"Cumulative Dose of Radiation (Gy) Prior to Initial Occurrence of Severe OM, K-M Estimate, Median (95% CI)","0.02 mg/kg, FAS population","34 (29, 59) Gy"
same,"Time (Days) to Initial Occurrence of Severe OM, K-M Estimate, 25%-7%","0.02 mg/kg, FAS population",18 to 42 days
same,"Time (Days) to Initial Occurrence of Severe OM, K-M Estimate, Mean (SE)","0.02 mg/kg, FAS population",28 (2.7) Days
same,"Time (Days) to Initial Occurrence of Severe OM, K-M Estimate, Median (95% CI)","0.02 mg/kg, FAS population","24 (19, 41) Days"
same,Cum. Percent of Subjects with Severe OM (WHO > 2),"0.02 mg/kg, FAS population, at 30-<35 Gy","52% (32%, 75%)"
same,Cum. Percent of Subjects with Severe OM (WHO > 2),"0.02 mg/kg, FAS population, at 35-<40 Gy","58% (37%, 79%)"
same,Cum. Percent of Subjects with Severe OM (WHO > 2),"0.02 mg/kg, FAS population, at 40-<45 Gy","63% (42%, 83%)"
same,Cum. Percent of Subjects with Severe OM (WHO > 2),"0.02 mg/kg, FAS population, at 45-<50 Gy","63% (42%, 83%)"
same,Cum. Percent of Subjects with Severe OM (WHO > 2),"0.02 mg/kg, FAS population, at 50-<55 Gy","68% (47%, 87%)"
same,Cum. Percent of Subjects with Severe OM (WHO > 2),"0.02 mg/kg, FAS population, at 55-<60 Gy","73% (53%, 90%)"
same,Cum. Percent of Subjects with Severe OM (WHO > 2),"0.02 mg/kg, FAS population, at 60-<65 Gy","80% (59%, 94%)"
same,Cum. Percent of Subjects with Severe OM (WHO > 2),"0.02 mg/kg, FAS population, at 65-<70 Gy","80% (59%, 94%)"
same,Cum. Percent of Subjects with Severe OM (WHO > 2),"0.02 mg/kg, FAS population, at >30 Gy","36% (19%, 61%)"
same,Cum. Percent of Subjects with Severe OM (WHO > 2),"0.02 mg/kg, FAS population, at ≧70 Gy","80% (59%, 94%)"
same,"Cox Regression Analysis of Time to Initial Occurrence of Sever OM, Hazard Ratio (95% CI)",[11],"1.002 (0.433, 2.319)"
same,"Cox Regression Analysis of Time to Initial Occurrence of Ulcerative OM, Hazard Ratio (95% CI)",[11],"0.475 (0.225, 1.004)"
same,"Cox Regression Analysis of Time to Initial Occurrence of Severe OM, Hazard Ratio (95% CI)","0.10 mg/kg vs placebo, FAS population","1.100 (0.484, 2.500)"
same,"Cumulative Dose of RT (Gy) at Initial Onset of Severe OM, Max",[12],72 Gy
same,"Cumulative Dose of RT (Gy) at Initial Onset of Severe OM, Mean (SD)",[12],55 (14.8) Gy
same,"Cumulative Dose of RT (Gy) at Initial Onset of Severe OM, Median",[12],57 Gy
same,"Cumulative Dose of RT (Gy) at Initial Onset of Severe OM, Min",[12],20 Gy
same,"Cumulative Dose of RT (Gy) at Initial Onset of Ulcerative OM, Max",[12],68 Gy
same,"Cumulative Dose of RT (Gy) at Initial Onset of Ulcerative OM, Mean (SD)",[12],31 (16.6) Gy
